Laboratory results reported in patent US11673890B2, “N1-pyrazolospiroketone acetyl-CoA carboxylase inhibitors” (Pfizer Inc., priority 2010, dated 2023).

Experiments:
[1] = target: T1, recombinant human ACC1 (rhACC1) (Homo sapiens, UniProt Q13085, DEL44-44); test: recombinant hACC1 Transcreener assay (ADP detection FP); assay type: biochemical; conditions: recombinant hACC1 Transcreener assay, 50 μM ATP, minimum of n=3; read-out: hACC1
T1 construct: infected with recombinant baculovirus containing full length human ACC1 cDNA; made in house; host or cells: SF9 insect cells (baculovirus)
Procedure: For example direct inhibition of ACC activity, for the compound of Formula (1) was determined using preparations of recombinant human ACC1 (rhACC1) and recombinant human ACC2 (rhACC2).
[1] Preparation of rhACC1. Two liters of SF9 cells, infected with recombinant baculovirus containing full length human ACC1 cDNA, were suspended in ice-cold lysis buffer (25 mM Tris, pH 7.5; 150 mM NaCl; 10% glycerol; 5 mM imidazole (EMD Bioscience; Gibbstown, N.J.); 2 mM TCEP (BioVectra; Charlottetown, Canada); Benzonase nuclease (10000 U/100 g cell paste; Novagen; Madison, Wis.); EDTA-free protease inhibitor cocktail (1 tab/50 mL; Roche Diagnostics; Mannheim, Germany). Cells were lysed by 3 cycles of freeze-thaw and centrifuged at 40,000×g for 40 minutes (4° C.). Supernatant was directly loaded onto a HisTrap FF crude column (GE Healthcare; Piscataway, N.J.) and eluted with an imidazole gradient up to 0.5 M over 20 column volumes (CV). ACC1-containing fractions were pooled and diluted 1:5 with 25 mM Tris, pH 7.5, 2 mM TCEP, 10% glycerol and direct loaded onto a CaptoQ (GE Healthcare) column and eluted with an NaCl gradient up to 1 M over 20 CV's. Phosphate groups were removed from purified ACC1 by incubation with lambda phosphatase (100 U/10 μM target protein; New England Biolabs; Beverly, Mass.) for 14 hours at 4° C.; okadaic acid was added (1 μM final concentration; Roche Diagnostics) to inhibit the phosphatase. Purified ACC1 was exchanged into 25 mM Tris, pH 7.5, 2 mM TCEP, 10% glycerol, 0.5 M NaCl by 6 hour dialysis at 4° C. Aliquots were prepared and frozen at −80° C.
[2] […] The final conditions for the assay were 50 mM HEPES, pH 7.2, 10 mM MgCl2, 7.5 mM tripotassium citrate, 2 mM DTT, 0.1 mg/mL BSA, 30 μM acetyl-CoA, 50 μM ATP, and 10 mM KHCO3. Typically, a 10 μl reaction was run for 120 min at 25° C., and 10 μl of Transcreener stop and detect buffer was added and the combination incubated at room temp for an additional 1 hour.
All of the examples in both assays were run with a minimum of n=3.

[2] = target: T2, recombinant human ACC2 (rhACC2) (Homo sapiens, UniProt O00763, V2141I); test: recombinant hACC2 Transcreener assay (ADP detection FP); assay type: biochemical; conditions: 50 μM ATP, minimum of n=3
T2 construct: a full length Cytomax clone of ACC2 was purchased from Cambridge Bioscience Limited; made in house; host or cells: CHO cells (tetracycline-inducible, pcDNA5 FRT TO-TOPO)
Procedure: For example direct inhibition of ACC activity, for the compound of Formula (1) was determined using preparations of recombinant human ACC1 (rhACC1) and recombinant human ACC2 (rhACC2). Representative sequences of the recombinant human ACC1 and ACC2 that can be used in the assay are provided in FIG. 1 (SEQ ID NO. 1) and FIG. 2 (SEQ. ID NO. 2), respectively.
[3] Preparation of rhACC2. Human ACC2 inhibition was measured using purified recombinant human ACC2 (hrACC2). Briefly, a full length Cytomax clone of ACC2 was purchased from Cambridge Bioscience Limited and was sequenced and subcloned into PCDNA5 FRT TO-TOPO (Invitrogen, Carlsbad, Calif.). The ACC2 was expressed in CHO cells by tetracycline induction and harvested in 5 liters of DMEM/F12 with glutamine, biotin, hygromycin and blasticidin with 1 μg/mL tetracycline (Invitrogen, Carlsbad, Calif.). The conditioned medium containing ACC2 was then applied to a Softlink Soft Release Avidin column (Promega, Madison, Wis.) and eluted with 5 mM biotin. 4 mgs of ACC2 were eluted at a concentration of 0.05 mg/mL (determined by A280) with an estimated purity of 95% ([…]). The purified ACC2 was dialyzed in 50 mM Tris, 200 mM NaCl, 4 mM DTT, 2 mM EDTA, and 5% glycerol. The pooled protein was frozen and stored at −80° C., with no loss of activity upon thawing. For measurement of ACC2 activity and assessment of ACC2 inhibition, test compounds were dissolved in DMSO and added to the rhACC2 enzyme as a 5× stock with a final DMSO concentration of 1%.
[4] Measurement of human ACC2 inhibition. hACC2 was assayed in a Costar #3676 (Costar, Cambridge, Mass.) 384-well plate using the Transcreener ADP detection FP assay kit (Bellbrook Labs, Madison, Wis.) using the manufacturer's recommended conditions for a 50 uM ATP reaction. The final conditions for the assay were 50 mM HEPES, pH 7.2, 5 mM MgCl2, 5 mM tripotassium citrate, 2 mM DTT, 0.1 mg/mL BSA, 30 μM acetyl-CoA, 50 μM ATP, and 8 mM KHCO3. Typically, a 10 μl reaction was run for 50 min at 25° C., and 10 μl of Transcreener stop and detect buffer was added and the combination incubated at room temp for an additional 1 hour. The data was acquired on an Envision Fluorescence reader (Perkinelmer) using a 620 excitation Cy5 FP general dual mirror, 620 excitation Cy5 FP filter, 688 emission (S) and a 688 (P) emission filter.
The results using the recombinant hACC1 and recombinant hACC2 Transcreener assays described above are summarized in the table below for the Compounds of Formula (I) exemplified in the Examples above. All of the examples in both assays were run with a minimum of n=3.

T2 sequence (O00763 whole entry V2141I): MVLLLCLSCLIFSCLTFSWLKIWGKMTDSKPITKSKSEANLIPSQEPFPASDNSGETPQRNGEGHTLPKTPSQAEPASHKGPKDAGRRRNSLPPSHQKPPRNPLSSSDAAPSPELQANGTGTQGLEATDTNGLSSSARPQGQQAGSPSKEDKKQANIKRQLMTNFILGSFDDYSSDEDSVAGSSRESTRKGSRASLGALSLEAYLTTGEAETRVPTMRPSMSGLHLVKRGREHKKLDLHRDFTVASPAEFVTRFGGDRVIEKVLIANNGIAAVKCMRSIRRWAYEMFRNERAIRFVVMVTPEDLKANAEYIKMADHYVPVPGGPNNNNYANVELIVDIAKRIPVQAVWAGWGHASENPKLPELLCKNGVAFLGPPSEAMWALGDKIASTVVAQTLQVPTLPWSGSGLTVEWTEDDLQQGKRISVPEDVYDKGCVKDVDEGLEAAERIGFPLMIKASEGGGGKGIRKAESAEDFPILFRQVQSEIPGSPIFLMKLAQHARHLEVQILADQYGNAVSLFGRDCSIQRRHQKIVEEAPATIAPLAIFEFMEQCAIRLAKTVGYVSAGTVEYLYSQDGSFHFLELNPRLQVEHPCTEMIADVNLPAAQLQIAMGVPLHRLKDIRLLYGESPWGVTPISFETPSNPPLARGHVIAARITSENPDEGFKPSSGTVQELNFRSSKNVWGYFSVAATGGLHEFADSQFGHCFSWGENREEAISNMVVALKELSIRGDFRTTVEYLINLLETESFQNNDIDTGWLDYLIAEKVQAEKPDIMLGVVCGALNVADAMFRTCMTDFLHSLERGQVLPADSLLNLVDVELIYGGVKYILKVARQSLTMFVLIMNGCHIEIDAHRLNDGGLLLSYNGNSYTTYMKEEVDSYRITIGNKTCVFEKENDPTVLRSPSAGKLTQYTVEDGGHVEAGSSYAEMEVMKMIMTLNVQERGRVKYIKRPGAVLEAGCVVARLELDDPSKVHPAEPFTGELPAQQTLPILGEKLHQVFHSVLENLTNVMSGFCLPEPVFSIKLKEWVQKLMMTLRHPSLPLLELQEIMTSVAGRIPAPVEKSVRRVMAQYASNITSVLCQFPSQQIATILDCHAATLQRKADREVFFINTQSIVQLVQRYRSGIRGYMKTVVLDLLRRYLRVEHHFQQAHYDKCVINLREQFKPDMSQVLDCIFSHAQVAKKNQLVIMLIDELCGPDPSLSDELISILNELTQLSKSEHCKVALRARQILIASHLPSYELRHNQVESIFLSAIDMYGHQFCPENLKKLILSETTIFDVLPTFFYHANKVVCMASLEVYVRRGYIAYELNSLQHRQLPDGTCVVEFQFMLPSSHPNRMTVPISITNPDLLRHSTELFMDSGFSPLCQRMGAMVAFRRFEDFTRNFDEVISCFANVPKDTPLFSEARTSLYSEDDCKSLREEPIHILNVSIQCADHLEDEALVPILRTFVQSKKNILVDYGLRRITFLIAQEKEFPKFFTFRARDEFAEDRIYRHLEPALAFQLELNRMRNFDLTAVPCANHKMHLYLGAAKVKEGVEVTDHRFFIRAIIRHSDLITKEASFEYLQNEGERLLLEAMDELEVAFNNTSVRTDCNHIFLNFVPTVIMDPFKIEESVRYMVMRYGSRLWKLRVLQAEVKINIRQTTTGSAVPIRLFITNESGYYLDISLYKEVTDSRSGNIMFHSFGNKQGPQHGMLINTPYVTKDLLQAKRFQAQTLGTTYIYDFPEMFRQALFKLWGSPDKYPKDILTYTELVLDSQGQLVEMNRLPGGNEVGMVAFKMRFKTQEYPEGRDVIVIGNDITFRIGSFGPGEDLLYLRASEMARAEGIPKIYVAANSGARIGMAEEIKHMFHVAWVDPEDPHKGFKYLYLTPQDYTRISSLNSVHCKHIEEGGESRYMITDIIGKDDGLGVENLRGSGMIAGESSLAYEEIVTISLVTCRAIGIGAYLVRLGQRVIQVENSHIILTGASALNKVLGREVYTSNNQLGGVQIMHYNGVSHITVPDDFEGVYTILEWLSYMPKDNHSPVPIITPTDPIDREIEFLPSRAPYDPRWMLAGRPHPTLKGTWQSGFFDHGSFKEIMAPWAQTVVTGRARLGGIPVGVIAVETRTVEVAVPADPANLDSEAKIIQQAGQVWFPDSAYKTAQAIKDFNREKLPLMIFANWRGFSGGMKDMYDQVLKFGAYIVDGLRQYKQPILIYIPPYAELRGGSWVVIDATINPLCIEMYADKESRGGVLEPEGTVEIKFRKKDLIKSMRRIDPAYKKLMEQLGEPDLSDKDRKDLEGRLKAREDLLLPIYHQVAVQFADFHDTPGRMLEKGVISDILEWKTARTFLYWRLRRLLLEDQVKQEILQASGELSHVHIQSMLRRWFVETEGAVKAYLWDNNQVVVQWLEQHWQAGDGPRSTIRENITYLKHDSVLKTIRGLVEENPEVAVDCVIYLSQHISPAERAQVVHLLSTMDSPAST

| Compound | IC50 [1] [nM] | IC50 [2] [nM] |
| --- | --- | --- |
| CC(C)(C)n1ncc2c1C(=O)CC1(CCN(C(=O)c3cc4c(-c5ccc(C(=O)O)cc5)cccc4[nH]3)CC1)C2 [Example 18, 4-{2-[(1-tert-butyl-7-oxo-1,4,6,7-tetrahydro-1′H-spiro[indazole-5,4′-piperidin]-1′-yl)carbonyl]-1H-indol-4-yl}benzoic acid] | 4.5 | 14.6 |
| CCNc1nc(-c2cccc(C(=O)O)c2)ccc1C(=O)N1CCC2(CC1)CC(=O)c1c(cnn1C(C)(C)C)C2 [Example 19, 3-{5-[(1-tert-butyl-7-oxo-1,4,6,7-tetrahydro-1′H-spiro[indazole-5,4′-piperidin]-1′-yl)carbonyl]-6-(ethylamino)pyridin-2-yl}benzoic acid] | 837 | 487 |
| CC(C)(C)n1ncc2c1C(=O)CC1(CCN(C(=O)c3cc(C(=O)O)cc(-c4ncco4)c3)CC1)C2 [Example 21, 3-[(1-tert-butyl-7-oxo-1,4,6,7-tetrahydro-1′H-spiro[indazole-5,4′-piperidin]-1′-yl)carbonyl]-5-(1,3-oxazol-2-yl)benzoic acid] | 627 | 507 |
| CC(C)n1ncc2c1C(=O)CC1(CCN(C(=O)c3cc(C(=O)O)cc(-c4ncco4)c3)CC1)C2 [Example 22, 3-[(1-isopropyl-7-oxo-1,4,6,7-tetrahydro-1′H-spiro[indazole-5,4′-piperidin]-1′-yl)carbonyl]-5-(1,3-oxazol-2-yl)benzoic acid] | 1010 | 685 |
| CC(C)Nc1nc(-c2cccc(C(=O)O)c2)ccc1C(=O)N1CCC2(CC1)CC(=O)c1c(cnn1C(C)C)C2 [Example 23, 3-{6-(isopropylamino)-5-[(1-isopropyl-7-oxo-1,4,6,7-tetrahydro-1′H-spiro[indazole-5,4′-piperidin]-1′-yl)carbonyl]pyridin-2-yl}benzoic acid] | 1370 | 420 |
| CC(C)Nc1nc(-c2ccc(C(=O)O)cc2)ccc1C(=O)N1CCC2(CC1)CC(=O)c1c(cnn1C(C)(C)C)C2 [Example 24, 4-{5-[(1-tert-butyl-7-oxo-1,4,6,7-tetrahydro-1′H-spiro[indazole-5,4′-piperidin]-1′-yl)carbonyl]-6-(isopropylamino)pyridin-2-yl}benzoic acid] | 3140 | 557 |
| CC(C)Nc1nc(-c2ccc(C(=O)O)cc2)ccc1C(=O)N1CCC2(CC1)CC(=O)c1c(cnn1C(C)C)C2 [Example 25, 4-{6-(isopropylamino)-5-[(1-isopropyl-7-oxo-1,4,6,7-tetrahydro-1′H-spiro[indazole-5,4′-piperidin]-1′-yl)carbonyl]pyridin-2-yl}benzoic acid] | 600 | 202 |
| CC(C)n1ncc2c1C(=O)CC1(CCN(C(=O)c3cc(-c4ccc(C(=O)O)cc4)c4cn[nH]c4c3)CC1)C2 [Example 26, 4-{6-[(1-isopropyl-7-oxo-1,4,6,7-tetrahydro-1′H-spiro[indazole-5,4′-piperidin]-1′-yl)carbonyl]-1H-indazol-4-yl}benzoic acid] | 20.4 | 7.49 |
| CC(C)n1ncc2c1C(=O)CC1(CCN(C(=O)c3cc(-c4ccc(C(=O)O)cc4)[nH]c(=O)c3)CC1)C2 [Example 27, 4-{4-[(1-isopropyl-7-oxo-1,4,6,7-tetrahydro-1′H-spiro[indazole-5,4′-piperidin]-1′-yl)carbonyl]-6-oxo-1,6-dihydropyridin-2-yl}benzoic acid] | 2910 | 1140 |
| CC(C)n1ncc2c1C(=O)CC1(CCN(C(=O)c3cc4c(-c5cccc(C(=O)O)c5)ccnc4[nH]3)CC1)C2 [Example 28, 3-{2-[(1-isopropyl-7-oxo-1,4,6,7-tetrahydro-1′H-spiro[indazole-5,4′-piperidin]-1′-yl)carbonyl]-1H-pyrrolo[2,3-b]pyridin-4-yl}benzoic acid] | 6.7 | 5.35 |
| CC(C)n1ncc2c1C(=O)CC1(CCN(C(=O)c3cc4c(-c5ccc(C(=O)O)cc5)ccnc4[nH]3)CC1)C2 [Example 29, 4-{2-[(1-isopropyl-7-oxo-1,4,6,7-tetrahydro-1′H-spiro[indazole-5,4′-piperidin]-1′-yl)carbonyl]-1H-pyrrolo[2,3-b]pyridin-4-yl}benzoic acid] | 13.7 | 6.16 |
| CC(C)n1ncc2c1C(=O)CC1(CCN(C(=O)c3cc4c(-c5ccc(C(=O)O)cc5)nccc4[nH]3)CC1)C2 [Example 30, 4-{2-[(1-isopropyl-7-oxo-1,4,6,7-tetrahydro-1′H-spiro[indazole-5,4′-piperidin]-1′-yl)carbonyl]-1H-pyrrolo[3,2-c]pyridin-4-yl}benzoic acid] | 16.1 | 18.8 |
| COc1ccc(-c2cccc3[nH]c(C(=O)N4CCC5(CC4)CC(=O)c4c(cnn4C(C)C)C5)cc23)cc1CC(=O)O [Example 31, (5-{2-[(1-isopropyl-7-oxo-1,4,6,7-tetrahydro-1′H-spiro[indazole-5,4′-piperidin]-1′-yl)carbonyl]-1H-indol-4-yl}-2-methoxyphenyl)acetic acid] | 23.1 | 54.8 |
| CC(C)n1ncc2c1C(=O)CC1(CCN(C(=O)c3cc(-c4cccc(C(=O)O)c4)nc(N(C)C)c3)CC1)C2 [Example 32, 3-{6-(dimethylamino)-4-[(1-isopropyl-7-oxo-1,4,6,7-tetrahydro-1′H-spiro[indazole-5,4′-piperidin]-1′-yl)carbonyl]pyridin-2-yl}benzoic acid] | 31.8 | 12.5 |
| CC(C)n1ncc2c1C(=O)CC1(CCN(C(=O)c3cc(-c4ccc(C(=O)O)cc4)nc(N(C)C)c3)CC1)C2 [Example 33, 4-{6-(dimethylamino)-4-[(1-isopropyl-7-oxo-1,4,6,7-tetrahydro-1′H-spiro[indazole-5,4′-piperidin]-1′-yl)carbonyl]pyridin-2-yl}benzoic acid] | 16.3 | 8.7 |
| CC(C)n1ncc2c1C(=O)CC1(CCN(C(=O)c3cc4c(-c5ccc(C(=O)O)cc5)ncnc4[nH]3)CC1)C2 [Example 34, 4-{6-[(1-isopropyl-7-oxo-1,4,6,7-tetrahydro-1′H-spiro[indazole-5,4′-piperidin]-1′-yl)carbonyl]-7H-pyrrolo[2,3-d]pyrimidin-4-yl}benzoic acid] | 55.8 | 42.6 |
